Source: US20140128352A1, “COMPOUNDS AND METHODS FOR MODULATING MITOCHONDRIAL METABOLISM AND REACTIVE OXYGEN SPECIES PRODUCTION” (Buck Institute for Research on Aging, priority 2012, published 2014)
Where two headings read alike, the source gives them in different places.

Tests used:
[1] = target: T1, glycerol-3-phosphate dehydrogenase (GPDH) (Rattus norvegicus, UniProt P35571); assay: High-throughput screen: ROS production from glycerol-3-phosphate dehydrogenase (GPDH); type: biochemical; parameters: inhibition: dose or concentration left out as unconfirmed; settings: for inhibition: Table 7
T1 construct: The activity of GPDH in intact mitochondria (0.3 mg/mL) was measured; from tissue; host or cells: rat skeletal muscle mitochondria (Wistar, Harlan Laboratories)
T1 sequence (P35571 43-727): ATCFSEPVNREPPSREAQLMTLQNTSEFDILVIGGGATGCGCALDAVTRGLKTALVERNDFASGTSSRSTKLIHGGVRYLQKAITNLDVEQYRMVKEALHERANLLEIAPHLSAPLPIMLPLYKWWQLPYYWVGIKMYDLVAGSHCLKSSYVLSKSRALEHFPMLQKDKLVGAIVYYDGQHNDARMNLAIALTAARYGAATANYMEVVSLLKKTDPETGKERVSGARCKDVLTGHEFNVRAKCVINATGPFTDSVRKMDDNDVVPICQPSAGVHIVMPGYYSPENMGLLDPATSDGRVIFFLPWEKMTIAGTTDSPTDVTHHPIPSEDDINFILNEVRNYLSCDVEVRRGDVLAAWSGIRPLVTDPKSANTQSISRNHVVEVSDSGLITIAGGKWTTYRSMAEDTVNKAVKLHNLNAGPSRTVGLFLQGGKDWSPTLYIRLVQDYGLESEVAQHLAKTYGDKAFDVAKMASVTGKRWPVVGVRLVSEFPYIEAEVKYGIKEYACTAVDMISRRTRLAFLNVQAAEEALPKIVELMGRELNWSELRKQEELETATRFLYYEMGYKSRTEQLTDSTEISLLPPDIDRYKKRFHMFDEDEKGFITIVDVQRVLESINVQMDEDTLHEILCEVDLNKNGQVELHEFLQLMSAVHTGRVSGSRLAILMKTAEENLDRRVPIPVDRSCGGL

[2] = target: T2, succinate dehydrogenase/complex II (SDH) (Rattus norvegicus, UniProt P21913+Q641Z9+Q6PCT8+Q920L2); assay: High-throughput screen: ROS production from succinate dehydrogenase/complex II (SDH); type: biochemical; settings: for inhibition at 2.5 µM: Table 7
T2 construct: freshly isolated muscle mitochondria were assayed; from tissue; host or cells: rat skeletal muscle mitochondria (Wistar, Harlan Laboratories)

[3] = target: T3, outer ubiquinone binding site of complex III (IIIQO) (Rattus norvegicus, UniProt P00159+P20788); assay: High-throughput screen: ROS production from outer ubiquinone binding site of complex III (IIIQO); type: biochemical; settings: percent change in ROS from DMSO controls
T3 construct: freshly isolated muscle mitochondria were assayed; from tissue; host or cells: rat skeletal muscle mitochondria (Wistar, Harlan Laboratories)

[4] = test system: mitochondrial membrane potential (ΔΨm); assay: Membrane potential (ΔΨm) counterscreen with TMRM; settings: malate, nigericin
[5] = test system: ubiquinone binding site of complex I (IQ); assay: High-throughput screen: ROS production from ubiquinone binding site of complex I (IQ), isolated skeletal muscle mitochondria; type: biochemical, rat; settings: percent change in ROS from DMSO controls
Method: (§1) Skeletal muscle mitochondria were isolated from 5-8 week old female Wistar rats (Harlan Laboratories). Minced muscle was homogenized in buffer containing bacterial protease Type VIII prior to differential centrifugation to separate mitochondria from other tissue components. Unless otherwise stated, freshly isolated muscle mitochondria were assayed in buffer containing 120 mM KCl, 5 mM HEPES, 1 mM EGTA, 0.3% (w/v) bovine serum albumin. Where indicated, CaCl2 was added to yield a final free concentration of 250 nM calcium at pH 7.0 at 37° C.
Compounds (10 mM in DMSO) were randomly selected from a library of 24,000 compounds obtained from ChemBridge and curated by the lab of Robert Hughes at the Buck Institute. Master screening plates were prepared using a Biomek FX liquid handling workstation (Beckman) to transfer 1 μL of each compound into individual wells on 96-well storage plates (80 compounds per plate). Master plates were sealed with foil and stored at −80° C. Just prior to use, plates were brought to room temperature and diluted 300-fold with standard buffer (13.3X=33.3 μM). To monitor the performance of each assay throughout screening and to provide intra-plate normalization reference points, DMSO negative controls and known mitochondrial inhibitor positive controls were included on each Master compound plate.
(§2) Total amounts of superoxide and H2O2 production were determined fluorometrically as H2O2, without distinguishing between them, in the presence of exogenous superoxide dismutase (25 units/mL final), horseradish peroxidase (1 unit/mL final), and Amplex UltraRed (25 μM final) as described (Affourtit, C. et al. (2012) Measurement of proton leak and electron leak in isolated mitochondria. Methods Mol. Biol. 810: 165-82). Just prior to use, a bulk 3.3X solution was made in standard buffer and distributed into a 2 mL deep well 96-well transfer plate.
To assess the effects of a compound on ROS production from the ubiquinone binding site of complex I (IQ), Start Solution containing 5 mM succinate was distributed into standard 96-well transfer plates. A Biomek FX workstation was programmed to dispense solutions into black 96-well assay plates. Solutions were dispensed to all assay plates in the following order: ROS Detection solution described in Example 3, Mitochondria solution described in Example 1 to a final concentration of 0.1 mg/ml, and Compound dilutions described in Example 2. Duplicate assay plates were made and each was initiated by the addition of 3.3X Start solution containing 5 mM succinate. Plates were incubated in the dark at room temperature for 30-40 minutes before acquiring endpoint fluorescence using a Victor 3V plate reader (Perkin Elmer) equipped with 550/590 nm excitation/emission filters.
The fluorescence values in each well were scaled as the percent change from the intra-plate DMSO controls with the appropriate inhibitor positive controls defined as −100%. Following initial scaling, intra-plate normalized values were subjected to Tukey's two-way median polish to remove row and column dependent positional effects (Malo et al, 2006).

[6] = target: T4, flavin binding site of complex I (IF) (Rattus norvegicus, UniProt Q5XIH3); assay: High-throughput screen: ROS production from flavin binding site of complex I (IF); type: biochemical
T4 construct: freshly isolated muscle mitochondria were assayed; from tissue; host or cells: rat skeletal muscle mitochondria (Wistar, Harlan Laboratories)
Method: as §1
Master screening plates were prepared using a Biomek FX liquid handling workstation (Beckman) to transfer 1 μL of each compound into individual wells on 96-well storage plates (80 compounds per plate). […] Just prior to use, plates were brought to room temperature and diluted 300-fold with standard buffer (13.3X=33.3 μM). To monitor the performance of each assay throughout screening and to provide intra-plate normalization reference points, DMSO negative controls and known mitochondrial inhibitor positive controls were included on each Master compound plate.
as §2
To assess the effects of a compound on ROS production from the flavin binding site of complex I (IF), Start Solution containing 5 mM glutamate, 5 mM malate and 4 μM rotenone was distributed into standard 96-well transfer plates. A Biomek FX workstation was programmed to dispense solutions into black 96-well assay plates. Solutions were dispensed to all assay plates in the following order: ROS Detection solution described in Example 3, Mitochondria solution described in Example 1 to a final concentration of 0.3 mg/ml, and Compound dilutions described in Example 2. Duplicate assay plates were made and each was initiated by the addition of 3.3X Start solution containing 5 mM glutamate, 5 mM malate and 4 μM rotenone. Plates were incubated in the dark at room temperature for 30-40 minutes before acquiring endpoint fluorescence using a Victor 3V plate reader (Perkin Elmer) equipped with 550/590 nm excitation/emission filters.
The fluorescence values in each well were scaled as the percent change from the intra-plate DMSO controls with the appropriate inhibitor positive controls defined as −100%. Following initial scaling, intra-plate normalized values were subjected to Tukey's two-way median polish to remove row and column dependent positional effects (Malo, N. et al. (2006) Statistical practice in high-throughput screening data analysis. Nat. Biotechnol. 24(2): 167-75).

[7] = percent change in ROS from DMSO controls
[8] = Table 8, percent change in ROS from DMSO controls
[9] = Table 9, percent change in ROS from DMSO controls
[10] = Table 3, 5 mM glutamate, 5 mM malate, 4 μM rotenone, compounds 2.5 μM, percent change from DMSO, positive control −100%, read-out: % Reduction in ROS production (IF)
[11] = Table 7, percent change in ROS from DMSO controls, read-out: IF

T4 sequence (Q5XIH3 21-464 limits assumed, one chain of several): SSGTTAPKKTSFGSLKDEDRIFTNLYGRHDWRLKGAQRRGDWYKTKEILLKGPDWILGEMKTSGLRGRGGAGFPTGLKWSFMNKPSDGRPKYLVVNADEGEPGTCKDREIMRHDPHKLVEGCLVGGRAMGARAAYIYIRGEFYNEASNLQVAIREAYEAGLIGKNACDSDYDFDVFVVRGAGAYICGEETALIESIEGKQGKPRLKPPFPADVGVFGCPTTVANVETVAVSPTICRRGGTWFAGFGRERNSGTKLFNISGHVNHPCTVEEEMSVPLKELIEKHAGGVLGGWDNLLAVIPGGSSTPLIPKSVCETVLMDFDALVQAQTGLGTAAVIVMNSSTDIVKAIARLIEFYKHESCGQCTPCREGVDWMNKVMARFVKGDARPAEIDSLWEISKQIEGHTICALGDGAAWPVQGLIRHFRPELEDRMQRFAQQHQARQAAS
T2 sequence (Q920L2 35-656): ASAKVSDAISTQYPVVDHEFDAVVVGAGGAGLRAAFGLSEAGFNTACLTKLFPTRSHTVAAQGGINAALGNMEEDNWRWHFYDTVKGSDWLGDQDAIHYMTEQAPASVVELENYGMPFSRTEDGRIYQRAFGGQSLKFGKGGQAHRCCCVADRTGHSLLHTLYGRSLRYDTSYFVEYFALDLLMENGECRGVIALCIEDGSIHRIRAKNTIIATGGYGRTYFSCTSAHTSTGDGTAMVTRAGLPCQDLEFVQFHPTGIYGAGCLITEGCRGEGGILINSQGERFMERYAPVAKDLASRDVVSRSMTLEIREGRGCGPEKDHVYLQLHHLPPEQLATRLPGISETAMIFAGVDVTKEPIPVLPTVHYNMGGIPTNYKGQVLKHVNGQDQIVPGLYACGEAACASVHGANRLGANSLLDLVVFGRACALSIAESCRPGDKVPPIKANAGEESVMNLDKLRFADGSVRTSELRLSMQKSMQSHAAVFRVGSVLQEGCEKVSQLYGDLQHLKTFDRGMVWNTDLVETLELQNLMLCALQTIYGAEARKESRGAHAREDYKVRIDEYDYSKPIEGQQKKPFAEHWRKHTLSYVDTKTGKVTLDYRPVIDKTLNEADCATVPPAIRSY
T2 sequence (P21913 31-282): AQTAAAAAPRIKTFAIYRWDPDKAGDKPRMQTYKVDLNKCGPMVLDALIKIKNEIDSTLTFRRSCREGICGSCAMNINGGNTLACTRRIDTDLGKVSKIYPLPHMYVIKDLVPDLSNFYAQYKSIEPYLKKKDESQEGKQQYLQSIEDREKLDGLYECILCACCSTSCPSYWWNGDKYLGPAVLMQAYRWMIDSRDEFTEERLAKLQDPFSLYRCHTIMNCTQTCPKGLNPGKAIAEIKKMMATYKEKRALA
T2 sequence (Q641Z9 30-169 limits assumed): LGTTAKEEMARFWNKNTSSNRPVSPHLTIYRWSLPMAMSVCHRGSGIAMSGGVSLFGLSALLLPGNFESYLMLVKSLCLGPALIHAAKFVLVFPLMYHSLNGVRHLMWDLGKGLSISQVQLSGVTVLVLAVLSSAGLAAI
T2 sequence (Q6PCT8 57-159): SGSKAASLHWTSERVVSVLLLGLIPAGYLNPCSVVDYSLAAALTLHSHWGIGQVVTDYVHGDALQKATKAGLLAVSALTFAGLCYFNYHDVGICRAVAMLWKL

| Compound | inhibition [1, 7] | GPDH [1, 8] | GPDH [1, 9] | inhibition at 2.5 µM [2, 7] | SDH [2, 8] | SDH [2, 9] | inhibition at 2.5 µM ([3]; Table 7, read-out: IIIQO) | IIIQO ([3]; Table 8) | inhibition at 2.5 µM ([3]; Table 9, read-out: IIIQo) | ΔΨm ([4]; Table 8, glutamate) | ΔΨm ([4]; Table 9, glutamate) | IQ ([5]; Table 7) | IQ ([5]; Table 8) | IQ ([5]; Table 9) | inhibition at 2.5 µM [6, 10] | inhibition at 2.5 µM [6, 11] | IF [6, 8] | IF [6, 9] | other results |
| --- | --- | --- | --- | --- | --- | --- | --- | --- | --- | --- | --- | --- | --- | --- | --- | --- | --- | --- | --- |
| Cc1cc(C)c(OCC(O)CNC(C)(C)CC(C)(C)C)c(C)c1.Cl (stereo not drawn) [Compound 14] |  |  |  |  |  |  |  | −2.9 |  | −0.7 | −0.7 | −4.7 | −4.7 | −4.7 |  |  |  |  | GPDH [1]: −3.9; SDH [2]: −9.6; IIIQO ([3]; Table 7): −2.9; IIIQO ([3]; Table 9): −2.9; % Reduction in ROS production (IF) [6]: −37.7%; IF [6]: −37.7 |
| CCCN(CCO)Cc1ccc2c(c1)c1ccccc1n2CC [Compound 15] | 2.5% | −2.5 | −2.5 | 2.7% | −2.7 | −2.7 | 7.5% | −7.5 | 7.5% | −0.9 | −0.9 | −0.1 | −0.1 | −0.1 | 27.6% | 27.6% | −27.6 | −27.6 |  |
| COc1ccccc1/C=C/c1nc(O)nc(O)c1[N+](=O)[O-] [Compound 16] | 0.6% | −0.6 | −0.6 | -4.2% | 4.2 | 4.2 | -6.6% | 6.6 | -6.6% | −0.3 | −0.3 | −5.4 | −5.4 | −5.4 | 26.7% | 26.7% | −26.7 | −26.7 |  |
| COc1cccc(/C=C/C(=O)c2c(O)cc(C)oc2=O)c1O [Compound 17] | 3.6% | −3.6 | −3.6 | 3.4% | −3.4 | −3.4 | 6% | −6.0 | 6% | 0.3 | 0.3 | −7.4 | −7.4 | −7.4 | 26% | 26% | −26.0 | −26.0 |  |
| Cc1ccc(C(C)C)c(OCC(O)CN2CCN(Cc3ccccc3)CC2)c1.Cl.Cl (stereo not drawn) [Compound 21] | 1.8% | −1.8 | −1.8 | -1.7% | 1.7 | 1.7 | 9.9% | −9.9 | 9.9% | −0.3 | −0.3 | 0.0 | 0.0 | 0.0 | 23% | 23% | −23.0 | −23.0 |  |
| CCN1CCN(C2CCC(C(C)(C)C)CC2)CC1 (stereo not drawn) [Compound 22] | 2.6% | −2.6 | −2.6 | -5.5% | 5.5 | 5.5 | 6.2% | −6.2 | 6.2% | −0.9 | −0.9 | −0.4 | −0.4 | −0.4 | 22.1% | 22.1% | −22.1 | −22.1 |  |
| Cc1ccc(S(=O)(=O)Nc2nnc(C)s2)cc1 [Compound 27] | 0.4% | −0.4 | −0.4 | -0.8% | 0.8 | 0.8 | 0.1% | −0.1 | 0.1% | 1.6 | 1.6 | 0.0 | 0.0 | 0.0 | 19.6% | 19.6% | −19.6 | −19.6 |  |

Second part, led by results:

| inhibition [1, 7] | GPDH [1, 8] | GPDH [1, 9] | inhibition at 2.5 µM [2, 7] | SDH [2, 8] | SDH [2, 9] | inhibition at 2.5 µM ([3]; Table 7, read-out: IIIQO) | IIIQO ([3]; Table 8) | inhibition at 2.5 µM ([3]; Table 9, read-out: IIIQo) | Compound | ΔΨm ([4]; Table 8, glutamate) | ΔΨm ([4]; Table 9, glutamate) | IQ ([5]; Table 7) | IQ ([5]; Table 8) | IQ ([5]; Table 9) | inhibition at 2.5 µM [6, 10] | inhibition at 2.5 µM [6, 11] | IF [6, 8] | IF [6, 9] | other results |
| --- | --- | --- | --- | --- | --- | --- | --- | --- | --- | --- | --- | --- | --- | --- | --- | --- | --- | --- | --- |
| 1.2% | −1.2 | −1.2 | 2.8% | −2.8 | −2.8 | 9% | −9.0 | 9% | CC1=CC(C)C(C2OCC(CN3CCCCC3)O2)C(C)C1 (stereo not drawn) [Compound 13] | −0.5 | −0.5 | 0.1 | 0.1 | 0.1 | 39% | 39% | −39.0 | −39.0 |  |
| 0.6% | −0.6 | −0.6 | 0.3% | −0.3 | −0.3 | -5.4% | 5.4 | -5.4% | O=C(Nc1ccccc1C(=O)O)c1ccccc1 [Compound 18] | −0.7 | −0.7 | −1.0 | −1.0 | −1.0 | 25.8% | 25.8% | −25.8 | −25.8 |  |
| 1.7% | −1.7 | −1.7 | 0.7% | −0.7 | −0.7 | -1.2% | 1.2 | -1.2% | O=C(Nc1ccccc1F)[C@@H]1C2C=CC(C2)[C@@H]1C(=O)O (stereo partly drawn) [Compound 20] | −0.3 | −0.3 | 0.2 | 0.2 | 0.2 | 24% | 24% | −24.0 | −24.0 |  |
| 1% | −1.0 | −1.0 | -1.7% | 1.7 | 1.7 | 8.8% | −8.8 | 8.8% | CN(C)CCN(Cc1ccccc1)Cc1ccccc1Br [Compound 23] | −1.5 | −1.5 | −2.7 | −2.7 | −2.7 | 21.1% | 21.1% | −21.1 | −21.1 |  |
| 2% | −2.0 | −2.0 | 1.5% | −1.5 | −1.5 | 1.3% | −1.3 | 1.3% | O=C(COc1ccc(Cl)cc1Cl)Nc1ccc(F)cc1F [Compound 24] | 0.1 | 0.1 | −1.0 | −1.0 | −1.0 | 19.8% | 19.8% | −19.8 | −19.8 |  |
| 2.5% | −2.5 | −2.5 | 0.1% | −0.1 | −0.1 | 3.3% | −3.3 | 3.3% | CCN(CC)CCN(CC)Cc1ccc(Cl)cc1Cl [Compound 25] | −0.4 | −0.4 | −0.6 | −0.6 | −0.6 | 19.7% | 19.7% | −19.7 | −19.7 |  |
